Measurements published in the supplement of paper PMC10307832.

Assays:
Assay in all cases: relative viability (nuclei count vs DMSO), 5 days (fraction); higher = more cells survive
[1] = compound: CCC1=CN=CN=C1N2CCN(CC2)CC3=NC4=C(N3)C=C(C=C4)C(F)(F)F + CS(=O)(=O)CCNCc1ccc(-c2ccc3ncnc(Nc4ccc(OCc5cccc(F)c5)c(Cl)c4)c3c2)o1 [Lapatinib] (partner 2 µM)
Method in brief: (§1)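 Relative viability equals treated-well nuclei counts divided by vehicle-well nuclei counts. Counts came from 4× images of lung cancer cell lines grown in 1536-well plates for 5 days after pin-tool dosing on the day after seeding. Dosing used one drug alone or a fixed anchor-drug dose plus five library-drug doses (not always all listed) in √10 steps, and values are medians of duplicate plates.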

Mirin + Decitabine = compound: N=C1NC(=O)/C(=C/c2ccc(O)cc2)S1 [Mirin] + Nc1ncn([C@H]2C[C@H](O)[C@@H](CO)O2)c(=O)n1 [Decitabine] (partner 2 µM)
Method in brief: as §1

Mirin + Pictilisib = compound: N=C1NC(=O)/C(=C/c2ccc(O)cc2)S1 [Mirin] + CS(=O)(=O)N1CCN(Cc2cc3nc(-c4cccc5[nH]ncc45)nc(N4CCOCC4)c3s2)CC1 [Pictilisib] (partner 1 µM)
Method in brief: as §1

[2] = compound: CCC1=CN=CN=C1N2CCN(CC2)CC3=NC4=C(N3)C=C(C=C4)C(F)(F)F + CS(=O)(=O)N1CCN(Cc2cc3nc(-c4cccc5[nH]ncc45)nc(N4CCOCC4)c3s2)CC1 [Pictilisib] (partner 1 µM)
Method in brief: as §1

| Cell Line | relative viability ([1]; first compound 0.04 µM) | relative viability ([1]; first compound 0.1265 µM) | relative viability ([1]; first compound 0.4 µM) | relative viability ([1]; first compound 1.265 µM) | relative viability ([1]; first compound 4 µM) | relative viability (Mirin + Decitabine; first compound 0.25 µM) | relative viability (Mirin + Decitabine; first compound 0.7906 µM) | relative viability (Mirin + Decitabine; first compound 2.5 µM) | relative viability (Mirin + Decitabine; first compound 7.906 µM) | relative viability (Mirin + Decitabine; first compound 25 µM) | relative viability (Mirin + Pictilisib; first compound 0.25 µM) | relative viability (Mirin + Pictilisib; first compound 0.7906 µM) | relative viability (Mirin + Pictilisib; first compound 2.5 µM) | relative viability (Mirin + Pictilisib; first compound 7.906 µM) | relative viability (Mirin + Pictilisib; first compound 25 µM) | relative viability ([2]; first compound 0.04 µM) | relative viability ([2]; first compound 0.1265 µM) | relative viability ([2]; first compound 0.4 µM) | relative viability ([2]; first compound 1.265 µM) | relative viability ([2]; first compound 4 µM) |
| --- | --- | --- | --- | --- | --- | --- | --- | --- | --- | --- | --- | --- | --- | --- | --- | --- | --- | --- | --- | --- |
| HCC-78 | 0.458 | 0.363 | 0.726 | 0.548 | 0.463 | 0.514 | 0.764 | 0.698 | 0.565 | 0.657 | 0.203 | 0.2 | 0.205 | 0.207 | 0.215 | 0.143 | 0.299 | 0.203 | 0.206 | 0.178 |
| HCC-366 | 1.01 | 1.05 | 0.988 |  | 1.13 | 0.342 | 0.315 | 0.325 | 0.322 | 0.374 | 0.169 | 0.17 | 0.158 | 0.122 | 0.0892 | 0.242 | 0.124 | 0.133 |  | 0.134 |
| HCC-827 | 0.201 | 0.182 | 0.184 | 0.165 | 0.178 | 0.17 | 0.262 | 0.36 | 0.308 | 0.351 | 1.16 | 1.08 | 1.04 | 1.03 | 1.21 | 0.978 | 1.04 | 1.03 | 0.957 | 0.994 |
| HOP-62 | 1.14 | 1.06 | 0.979 | 0.971 | 1.07 | 0.221 | 0.188 | 0.203 | 0.224 | 0.218 | 0.554 | 0.33 | 0.764 |  | 0.496 | 0.661 | 0.669 | 0.705 | 0.642 | 0.76 |
| IA-LM | 0.85 | 0.781 | 0.736 | 0.923 | 0.893 |  |  |  |  |  | 0.399 | 0.438 | 0.326 | 0.349 | 0.494 | 0.409 | 0.33 | 0.323 | 0.325 | 0.3 |
| LC-2-ad | 1.07 | 0.898 | 0.899 | 0.945 | 0.925 | 0.843 | 0.814 | 0.743 | 0.78 | 0.921 | 0.554 | 0.298 | 0.497 | 0.216 | 0.356 | 0.459 | 0.512 | 0.424 | 0.328 | 0.326 |
| LCLC-97TM1 | 1.02 | 0.697 | 0.828 | 0.877 | 0.8 | 0.239 | 0.224 | 0.228 | 0.179 | 0.197 | 0.184 | 0.128 | 0.193 | 0.136 | 0.149 | 0.181 | 0.198 | 0.181 | 0.204 | 0.214 |
| LCLC-103H |  |  |  |  |  | 0.692 | 0.759 | 0.736 | 0.797 | 0.871 | 0.63 | 0.532 | 0.536 | 0.714 | 0.739 | 0.599 | 0.614 | 0.499 | 0.435 | 0.559 |
| LK-2 | 0.947 | 0.797 | 0.838 | 0.498 | 0.985 | 0.161 | 0.206 | 0.299 | 0.21 | 0.227 | 0.387 |  | 0.537 | 0.271 | 0.222 | 0.575 | 0.462 | 0.436 | 0.42 | 0.56 |
| LOU-NH91 | 0.761 | 0.794 | 0.77 | 0.644 | 0.844 | 0.799 | 0.843 | 0.874 | 0.9 | 1.03 | 0.499 |  | 0.496 | 0.502 | 0.46 | 0.501 | 0.533 | 0.54 | 0.47 | 0.551 |
| LU99A | 0.964 | 0.989 | 0.95 | 0.926 | 0.948 | 0.877 | 0.785 | 0.94 | 0.892 | 0.736 | 0.282 | 0.302 | 0.295 | 0.283 | 0.271 | 0.369 | 0.287 | 0.363 | 0.346 | 0.321 |
| LXF-289 | 1 | 0.853 | 0.845 | 0.974 | 0.899 | 0.347 | 0.394 | 0.335 | 0.347 | 0.387 | 0.744 | 0.747 | 0.803 | 0.844 | 0.701 | 0.744 | 0.793 | 0.762 | 0.646 | 0.754 |
| NCI-H441 |  |  |  |  |  | 0.251 | 0.259 | 0.244 | 0.217 | 0.218 | 0.531 | 0.521 | 0.528 | 0.37 | 0.362 | 0.571 | 0.435 | 0.451 | 0.435 | 0.418 |
| NCI-H522 |  |  |  |  |  | 0.576 | 0.611 | 0.668 | 0.654 | 0.524 |  |  |  |  |  |  |  |  |  |  |
| NCI-H1299 | 0.977 | 0.985 | 0.96 | 0.948 | 0.955 |  |  |  |  |  | 0.811 | 0.823 | 0.787 | 0.688 | 0.602 | 0.819 | 0.728 | 0.972 | 0.752 | 0.673 |
| NCI-H1563 | 0.903 | 0.908 | 0.984 | 0.715 | 1.36 |  |  |  |  |  | 0.619 | 0.618 | 0.651 | 0.662 | 0.538 | 0.643 | 0.684 | 0.65 | 0.616 | 0.698 |
| NCI-H1648 |  |  |  |  |  | 0.559 |  | 0.51 | 0.525 | 0.418 |  |  |  |  |  |  |  |  |  |  |
| NCI-H1703 | 0.966 | 0.819 | 0.921 | 0.804 | 0.923 |  |  |  |  |  | 0.25 | 0.252 | 0.27 |  | 0.226 | 0.238 | 0.277 | 0.263 | 0.232 | 0.227 |
| NCI-H2228 | 0.949 | 1.11 | 0.79 | 1.14 | 1.06 |  |  |  |  |  | 0.397 | 0.396 | 0.37 | 0.356 | 0.346 | 0.383 | 0.397 | 0.297 | 0.309 | 0.436 |
| NCI-H2342 |  |  |  |  |  | 0.77 | 0.775 | 0.684 |  | 0.633 |  |  |  |  |  |  |  |  |  |  |
| SW 900 |  |  |  |  |  | 0.326 | 0.413 | 0.438 | 0.414 | 0.384 |  |  |  |  |  |  |  |  |  |  |
